Broadly, the MIC is the lowest concentration found to suppress growth. Higher therefore signals weaker potency.

Three compounds from ChEMBL document CHEMBL1145758, “In vivo characterization of A-192411: a novel fungicidal lipopeptide (II)” (2003) can be followed below.

In brackets after ≈: the same amount, converted by molar mass. Starred links: 1 amine or outer side, 2 acyl side, 3 side chain; linkers in the order of their positions; H or OH if unused. Positions of bridges follow the written chain, without caps; N, C: chain ends. Non-standard residues stand in square brackets, D forms with d. Residues, ends and D or L forms follow the SMILES beside them. *: point of attachment. pTerphenylCO(4''-OnC5H11) = CCCCCOc1ccc(-c2ccc(-c3ccc(C(=O)*)cc3)cc2)cc1; X1 = NCC(=O)Nc1cc(CC[C@H](N[*:1])C(=O)[*:2])ccc1O; X2 = NC(N)=N[C@H]1CC(C(=O)[*:2])N([*:1])C1; Hyp = O=C(O)[C@@H]1C[C@@H](O)CN1; Orn = NCCC[C@H](N)C(=O)O

What all share (assay type): functional
One experiment is filed under the species Rattus norvegicus. In words: Minimum inhibitory concentration against Candida albicans (CCH442) tested in rats.
The subject of experiment [1] is Candida albicans. Kind of experiment: Minimum inhibitory concentration against 41 strains of C. albicans; Range is 0.25-1.0 ug/mL.
For the next experiment, the species on record is Mus musculus. In words: Minimum inhibitory concentration against Candida albicans (CCH442) tested in mice.
For experiment [2], the system named is Candida albicans. In words: Minimum inhibitory concentration against Candida albicans (CAF2).
The next experiment deals with Aspergillus fumigatus. Kind of experiment: Minimum inhibitory concentration against Aspergillus fumigatus.

For the compound `CCCCCOc1ccc(-c2ccc(-c3ccc(C(=O)N[C@H]4CCCNC(=O)C5C[C@H](N=C(N)N)CN5C(=O)[C@H]([C@@H](C)O)NC(=O)[C@H](CCc5ccc(O)c(NC(=O)CN)c5)NC(=O)[C@@H]5C[C@@H](O)CN5C(=O)[C@H]([C@@H](C)O)NC4=O)cc3)cc2)cc1` (stereo not given in full) ({pTerphenylCO(4''-OnC5H11)}-[Orn]T[Hyp][X1]T[X2]; lactam 1-C), the MIC is 0.5 µg/mL (≈ 0.425 µM) in the experiment listed under Rattus norvegicus; 0.25 µg/mL (≈ 0.213 µM) against Candida albicans [1]; 0.5 µg/mL (≈ 0.425 µM) in the experiment listed under Mus musculus; 0.25 µg/mL (≈ 0.213 µM) against Candida albicans [2]; above 100 µg/mL against Aspergillus fumigatus.
As for `C[C@@H]1[C@H](O)[C@@H](C)/C=C/C=C/C=C/C=C/C=C/C=C/C=C/[C@H](O[C@@H]2O[C@H](C)[C@@H](O)[C@H](N)[C@@H]2O)C[C@@H]2O[C@](O)(C[C@@H](O)C[C@@H](O)[C@H](O)CC[C@@H](O)C[C@@H](O)CC(=O)O[C@H]1C)C[C@H](O)[C@H]2C(=O)O` [AMPHOTERICIN B], the MIC in the experiment filed under Rattus norvegicus is 1 µg/mL (≈ 1.08 µM); in the experiment filed under Mus musculus, 1 µg/mL (≈ 1.08 µM); against Candida albicans [2], 0.5 µg/mL (≈ 0.541 µM); in the experiment on Aspergillus fumigatus it was 0.78 µg/mL (≈ 0.844 µM).
Compound `OC(Cn1cncn1)(Cn1cncn1)c1ccc(F)cc1F` [FLUCONAZOLE] returned an MIC in the experiment filed under Rattus norvegicus of 0.19 µg/mL (≈ 0.62 µM).
